The record followed here is patent US8063071B2 (GlaxoSmithKline, LLC, priority 2007, dated 2011).

Assay [1] has as its target T1, Recombinant human IKKβ (residues 1-737) (Homo sapiens, UniProt O14920).
T1 construct: Recombinant human IKKβ (residues 1-737); GST (C); made in house
T1 sequence (O14920 1-737): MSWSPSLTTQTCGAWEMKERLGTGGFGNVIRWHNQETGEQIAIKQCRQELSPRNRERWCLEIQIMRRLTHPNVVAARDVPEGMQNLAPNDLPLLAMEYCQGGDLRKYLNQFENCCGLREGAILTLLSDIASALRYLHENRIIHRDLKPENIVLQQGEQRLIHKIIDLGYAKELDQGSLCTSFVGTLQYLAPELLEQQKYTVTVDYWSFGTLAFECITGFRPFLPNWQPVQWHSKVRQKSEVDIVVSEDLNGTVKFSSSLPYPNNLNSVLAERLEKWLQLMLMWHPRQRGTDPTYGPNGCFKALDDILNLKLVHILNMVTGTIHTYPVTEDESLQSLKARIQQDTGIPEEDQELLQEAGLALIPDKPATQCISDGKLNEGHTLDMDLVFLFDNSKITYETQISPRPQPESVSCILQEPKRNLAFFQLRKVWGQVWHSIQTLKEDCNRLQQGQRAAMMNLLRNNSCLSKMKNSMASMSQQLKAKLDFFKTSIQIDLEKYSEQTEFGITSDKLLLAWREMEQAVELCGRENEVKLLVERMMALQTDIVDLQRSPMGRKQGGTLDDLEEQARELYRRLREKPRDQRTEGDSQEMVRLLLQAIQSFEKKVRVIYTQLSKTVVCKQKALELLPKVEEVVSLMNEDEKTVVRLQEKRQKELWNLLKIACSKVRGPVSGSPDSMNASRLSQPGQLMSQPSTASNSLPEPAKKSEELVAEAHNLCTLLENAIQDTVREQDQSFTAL
Description: IKK2 assay (TR-FRET). The conditions noted are these: ATP 1 μM final, read-out: pIC50 against IKK2 (converted). Type of assay: biochemical. The method, boiled down: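 TR-FRET readout (665 nm over 620 nm Eu reference) of GST-IB Ser32/36 phosphorylation after 60 min detection. Reaction: 1 μM ATP, 25 nM substrate, 0.5-5 nM GST-fused IKKβ 1-737 from baculovirus, pH 7.4 HEPES buffer, 1.7% DMSO, 15 min room temperature, EDTA-terminated.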
Background: In TR-FRET formats the signal depends on donor and acceptor labels being close together.

Assay [2] relates to human monocyte stimulated cytokine production (TNF-α). Briefly: Monocyte assay (LPS-stimulated TNF-α production). Type of assay: cell-based. The conditions noted are these: for IC50: 24 h, 200 ng/mL LPS, TNF-α by ELISA; for inhibition at 0.3 µM: read-out: inhibition at 300 nM in the monocyte assay. The gist of the method: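 TNF-α release was measured by ELISA after 24 hrs at 37 C. Cells were stimulated with 200 ng/mL E. coli LPS, with compound added 30 minutes beforehand (0.1% DMSO vehicle). Cells were Ficoll/MACS-isolated CD14+ human monocytes adhered at 1×10^6 cells/mL, and viability was checked by trypan blue.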
In general terms: In an ELISA, binding on a coated surface is turned into a signal by an enzyme label.

Counter-ions that a name gives are not always drawn.

For the compound `CCS(=O)(=O)N1CCC(c2c[nH]c3c(C(N)=O)cc(-c4cc(F)cc(CNCCCOC)c4)cc23)CC1` [Example 327, 3-[1-(ethylsulfonyl)-4-piperidinyl]-5-[3-fluoro-5-({[3-(methyloxy)propyl]amino}methyl)phenyl]-1H-indole-7-carboxamide trifluoroacetate], the figures for the IC50 in assay [1] and in assay [2] were ≤ 10 µM and ≤ 1.5 µM, respectively.
Consider `CCS(=O)(=O)N1CCC(c2c[nH]c3c(C(N)=O)cc(-c4cc(F)cc(CNCc5ccco5)c4)cc23)CC1` [Example 328, 3-[1-(ethylsulfonyl)-4-piperidinyl]-5-(3-fluoro-5-{[(2-furanylmethyl)amino]methyl}phenyl)-1H-indole-7-carboxamide trifluoroacetate], for which the IC50 in assay [1] is ≤ 10 µM. Besides, in assay [2], the inhibition at 0.3 µM was in the range of 0 to 60%.
In the case of `CCS(=O)(=O)N1CCC(c2c[nH]c3c(C(N)=O)cc(-c4cc(F)cc(CNCCC(C)C)c4)cc23)CC1` [Example 329, 3-[1-(ethylsulfonyl)-4-piperidinyl]-5-(3-fluoro-5-{[(3-methylbutyl)amino]methyl}phenyl)-1H-indole-7-carboxamide trifluoroacetate], the figures for the IC50 in assay [1] and in assay [2] were ≤ 10 µM and ≤ 1.5 µM, respectively.
The like results for `CCS(=O)(=O)N1CCC(c2c[nH]c3c(C(N)=O)cc(-c4cc(F)cc(CNCc5ccc(C)o5)c4)cc23)CC1` [Example 330, 3-[1-(ethylsulfonyl)-4-piperidinyl]-5-[3-fluoro-5-({[(5-methyl-2-furanyl)methyl]amino}methyl)phenyl]-1H-indole-7-carboxamide trifluoroacetate] were, in that order, ≤ 10 µM and > 1 µM.
In the case of `CCS(=O)(=O)N1CCC(c2c[nH]c3c(C(N)=O)cc(-c4cccc(C5CCCN5)c4)cc23)CC1` (stereo not drawn) [Example 332, 3-[1-(ethylsulfonyl)-4-piperidinyl]-5-[3-(2-pyrrolidinyl)phenyl]-1H-indole-7-carboxamide trifluoroacetate], the figures for the IC50 in assay [1] and in assay [2] were ≤ 10 µM and ≤ 1.5 µM, respectively.
As to `CCS(=O)(=O)N1CCC(c2c[nH]c3c(C(N)=O)cc(-c4cc(CNC)ccc4F)cc23)CC1` [Example 333, 3-[1-(ethylsulfonyl)-4-piperidinyl]-5-{2-fluoro-5-[(methylamino)methyl]phenyl}-1H-indole-7-carboxamide trifluoroacetate], the IC50 in assay [1] was ≤ 10 µM; in assay [2], ≤ 1.5 µM.
`CCCNCc1ccc(F)c(-c2cc(C(N)=O)c3[nH]cc(C4CCN(S(=O)(=O)CC)CC4)c3c2)c1` [Example 334, 3-[1-(ethylsulfonyl)-4-piperidinyl]-5-{2-fluoro-5-[(propylamino)methyl]phenyl}-1H-indole-7-carboxamide trifluoroacetate]: the IC50 is ≤ 10 µM in assay [1] and ≤ 1.5 µM in assay [2].
With `CCS(=O)(=O)N1CCC(c2c[nH]c3c(C(N)=O)cc(-c4cc(CNCC(C)C)ccc4F)cc23)CC1` [Example 335, 3-[1-(ethylsulfonyl)-4-piperidinyl]-5-(2-fluoro-5-{[(2-methylpropyl)amino]methyl}phenyl)-1H-indole-7-carboxamide trifluoroacetate], the values for the IC50 in assay [1] and in assay [2] were ≤ 10 µM and ≤ 1.5 µM, respectively.
Turning to `CCS(=O)(=O)N1CCC(c2c[nH]c3c(C(N)=O)cc(-c4cc(CNCC(C)(C)C)ccc4F)cc23)CC1` [Example 336, 5-(5-{[(2,2-dimethylpropyl)amino]methyl}-2-fluorophenyl)-3-[1-(ethylsulfonyl)-4-piperidinyl]-1H-indole-7-carboxamide trifluoroacetate], the IC50 is ≤ 10 µM in assay [1] and ≤ 1.5 µM in assay [2].
Taken in the same sequence, the figures for `CCS(=O)(=O)N1CCC(c2c[nH]c3c(C(N)=O)cc(-c4cc(CN[C@@H](C)C(C)C)ccc4F)cc23)CC1` [Example 337, 5-[5-({[(1S)-1,2-dimethylpropyl]amino}methyl)-2-fluorophenyl]-3-[1-(ethylsulfonyl)-4-piperidinyl]-1H-indole-7-carboxamide trifluoroacetate] were ≤ 10 µM and ≤ 1.5 µM.
With `CCS(=O)(=O)N1CCC(c2c[nH]c3c(C(N)=O)cc(-c4cc(CN[C@H](C)C(C)C)ccc4F)cc23)CC1` [Example 338, 5-[5-({[(1R)-1,2-dimethylpropyl]amino}methyl)-2-fluorophenyl]-3-[1-(ethylsulfonyl)-4-piperidinyl]-1H-indole-7-carboxamide trifluoroacetate], the IC50 in assay [1] was ≤ 10 µM; in assay [2], > 1 µM.
With `CCS(=O)(=O)N1CCC(c2c[nH]c3c(C(N)=O)cc(-c4cc(CNCC5CC5)ccc4F)cc23)CC1` [Example 339, 5-(5-{[(cyclopropylmethyl)amino]methyl}-2-fluorophenyl)-3-[1-(ethylsulfonyl)-4-piperidinyl]-1H-indole-7-carboxamide trifluoroacetate], the IC50 is ≤ 10 µM in assay [1] and > 1 µM in assay [2].
As to `CCS(=O)(=O)N1CCC(c2c[nH]c3c(C(N)=O)cc(-c4cc(CN5CCCC5)ccc4F)cc23)CC1` [Example 340, 3-[1-(ethylsulfonyl)-4-piperidinyl]-5-[2-fluoro-5-(1-pyrrolidinylmethyl)phenyl]-1H-indole-7-carboxamide trifluoroacetate], the IC50 in assay [1] was ≤ 10 µM; in assay [2], > 1 µM.
As to `CCS(=O)(=O)N1CCC(c2c[nH]c3c(C(N)=O)cc(-c4cc(CN5CCOCC5)ccc4F)cc23)CC1` [Example 341, 3-[1-(ethylsulfonyl)-4-piperidinyl]-5-[2-fluoro-5-(4-morpholinylmethyl)phenyl]-1H-indole-7-carboxamide trifluoroacetate], the IC50 in assay [1] was ≤ 10 µM; in assay [2], > 1 µM.
Turning to `CCS(=O)(=O)N1CCC(c2c[nH]c3c(C(N)=O)cc(-c4cc(CNCCOC)ccc4F)cc23)CC1` [Example 342, 3-[1-(ethylsulfonyl)-4-piperidinyl]-5-[2-fluoro-5-({[2-(methyloxy)ethyl]amino}methyl)phenyl]-1H-indole-7-carboxamide trifluoroacetate], the IC50 in assay [1] was ≤ 10 µM; in assay [2], ≤ 1.5 µM.
Regarding `CCS(=O)(=O)N1CCC(c2c[nH]c3c(C(N)=O)cc(-c4cc(CNCCCOC)ccc4F)cc23)CC1` [Example 343, 3-[1-(ethylsulfonyl)-4-piperidinyl]-5-[2-fluoro-5-({[3-(methyloxy)propyl]amino}methyl)phenyl]-1H-indole-7-carboxamide trifluoroacetate], the IC50 in assay [1] is ≤ 10 µM; in assay [2] it was ≤ 1.5 µM.
Taken in the same sequence, the figures for `CCS(=O)(=O)N1CCC(c2c[nH]c3c(C(N)=O)cc(-c4cccc(C5CCCN5C)c4)cc23)CC1` (stereo not drawn) [Example 344, 3-[1-(ethylsulfonyl)-4-piperidinyl]-5-[3-(1-methyl-2-pyrrolidinyl)phenyl]-1H-indole-7-carboxamide trifluoroacetate] were ≤ 10 µM and ≤ 1.5 µM.
For `CCS(=O)(=O)N1CCC(c2c[nH]c3c(C(N)=O)cc(-c4cccc(CCNCC(C)C)c4)cc23)CC1` [Example 345, 3-[1-(ethylsulfonyl)-4-piperidinyl]-5-(3-{2-[(2-methylpropyl)amino]ethyl}phenyl)-1H-indole-7-carboxamide trifluoroacetate], in assay [1], the IC50 was ≤ 10 µM. Also, the inhibition at 0.3 µM in assay [2] was 0 to 60%.
Consider `CCNCCc1cccc(-c2cc(C(N)=O)c3[nH]cc(C4CCN(S(=O)(=O)CC)CC4)c3c2)c1` [Example 346, 5-{3-[2-(ethylamino)ethyl]phenyl}-3-[1-(ethylsulfonyl)-4-piperidinyl]-1H-indole-7-carboxamide trifluoroacetate], for which the IC50 is ≤ 10 µM in assay [1] and ≤ 1.5 µM in assay [2].
For the compound `CCCNCCc1cccc(-c2cc(C(N)=O)c3[nH]cc(C4CCN(S(=O)(=O)CC)CC4)c3c2)c1` [Example 347, 3-[1-(ethylsulfonyl)-4-piperidinyl]-5-{3-[2-(propylamino)ethyl]phenyl}-1H-indole-7-carboxamide trifluoroacetate], in assay [1], the IC50 is ≤ 10 µM. Further, the inhibition at 0.3 µM in assay [2] is 0 to 60%.
Take `CCS(=O)(=O)N1CCC(c2c[nH]c3c(C(N)=O)cc(-c4cccc(CCN(C)C)c4)cc23)CC1` [Example 348, 5-{3-[2-(dimethylamino)ethyl]phenyl}-3-[1-(ethylsulfonyl)-4-piperidinyl]-1H-indole-7-carboxamide trifluoroacetate]: the figures for the IC50 in assay [1] and in assay [2] were ≤ 10 µM and ≤ 1.5 µM, respectively.

In general, inhibition refers to the relative decrease from the control value, in per cent.
